For one assay, the system named is hyaluronic acid. The assay can be described thus: Hyaluronic acid secretion by HA ELISA in HaCaT keratinocytes. The class given is cell-based, human. The note with it: peptide 10, 50, 100 μM, 72 hours, FIG. 2. The method, then: (§1) First, NIH3T3 cells and HaCaT cells (human keratinocyte cell line) were seeded in a 24-well plate at a cell density of 1×10^4 cell/well, and then the cells were cultured in DMEM medium containing 10% fetal bovine serum (FBS) for 24 hours. The cultured cells were washed once with serum free DMEM medium, and the peptide of the present invention was mixed in 2 mL of the serum free DMEM medium at each of concentrations of 10 μM, 50 μM, 100 μM, and 5 ng/ml, and dispensed into three wells by 500 μL per condition. NIH3T3 cells were treated with 5 ng/ml of TGF-β1 instead of the above peptide as a positive control (PC). HaCaT cells were treated with 10 nM of IGF-1 instead of the above peptide as a positive control (PC). The cells were cultured in a CO2 incubator at 37° C. for 72 hours.
(§2) The medium of the cultured NIH3T3 and HaCaT cells was centrifuged to settle a suspended matter, a supernatant was transferred to an e-tube, and then each of ELISA (abcam, Cat No.: ab210579, UK) and hyaluronic acid (HA) ELISA (ECHELON biosciences, Cat No.: K-1200, USA) was performed using the same.
Background: An ELISA detects its analyte on a solid surface through an enzyme-linked reagent.

In another assay the test system is AQP3. Briefly: AQP3 mRNA level by RT-PCR in HaCaT keratinocytes. The assay is classed as cell-based, human. The note with it: HaCaT cells, peptide 10, 50, 100 μM, 24 hours, FIG. 3. How it is done:
(§3) First, HaCaT cells were seeded in a 6-well plate at a cell density of 3×10^5 cell/well, and then the cells were cultured in DMEM medium containing 10% fetal bovine serum (FBS) for 24 hours. The cultured cells were washed once with serum free DMEM medium, and then the peptide of the present invention was mixed in 1 mL of the serum free DMEM medium at each of concentrations of 10, 50, and 100 μM, and dispensed into the cells. A positive control (PC) was treated with 100 nM of EGF instead of the above peptide. The cells were cultured in a CO2 incubator at 37° C. for 24 hours.
(§4) The cultured cells were washed twice with PBS, and then RNA was extracted from the cells using easy blue (iNtRON, Cat. No.: 17061, Korea). The extracted RNA was subjected to RT reaction using a kit (enzynomics, Cat. No.: RT200, Korea). Thereafter, RT-PCR was performed using a PCR kit (enzynomics, Cat. No.: R581T, Korea). The sequences of the primers of SIRT1 and AQP3 used in RT-PCR and the sequence of the primer of GAPDH used to compare the total RNA amount of each treatment group are shown in [Table 2].

The next assay has as its system elastin gene. The assay can be described thus: Elastin gene expression by RT-PCR in fibroblasts. The class given is cell-based, mouse. The note with it: NIH3T3 cells, peptide 10, 50, 100 μM, 24 hours, FIG. 1. The method, then:
(§5) First, NIH3T3 cells (mouse fibroblast cell line) were seeded in a 6-well plate at a cell density of 3×10^5 cell/well, and then the cells were cultured in DMEM medium containing 10% fetal bovine serum (FBS) for 24 hours. The cultured cells were washed once with serum free DMEM medium, and the peptide of the present invention was mixed in 1 mL of the serum free DMEM medium at each of concentrations of 10, 50, and 100 μM, and dispensed into the cells. A positive control (PC) was treated with 5 ng/ml of TGF-β1 instead of the above peptide. The cells were cultured in a CO2 incubator at 37° C. for 24 hours.
(§6) The cultured cells were washed twice with PBS, and RNA was extracted from the cells using easy blue (iNtRON, Cat. No.: 17061, Korea). The amount of RNA extracted was quantified, 1,000 ng of RNA was added per tube, and RT reaction was performed using a kit (enzynomics, Cat. No.: […], Korea). RT-PCR was performed using a PCR kit (enzynomics, Cat. No.: […], Korea). The sequences of the primers of fibronectin and elastin used in RT-PCR and the sequence of the primer of GAPDH used to compare the total RNA amount of each treatment group are shown in [Table 2].

Assay [1] has as its system MMP-1. The assay can be described thus: MMP-1 expression after UVA irradiation, western blot. The class given is cell-based, mouse. The note with it: NIH3T3 cells, peptide 10, 50, 100 μM, 6 J/cm^2 UVA, FIG. 6. How it is done: (§7) First, NIH3T3 cells were seeded in a 6-well plate at a cell density of 5×10^5 cell/well, and then the cells were cultured in DMEM medium containing 10% fetal bovine serum (FBS) for 24 hours. The cultured cells were washed once with serum free DMEM medium, and the peptide of the present invention was mixed in 1 mL of the serum free DMEM medium at each of concentrations of 10, 50, and 100 μM, and dispensed into the cells. A positive control (PC) was treated with 2.5 mM of N-acetylcysteine (NaC) instead of the above peptide.
The cells were cultured in a CO2 incubator at 37° C. for 1 hour. The medium of the cultured cells was transferred to a tube (e-tube), 1 ml of PBS was added, and irradiation was performed with 6 J/cm^2 of UVA using a UV irradiator (VILBER LOURMAT, Cat No.: 3102-BSU, France). After removing PBS, 900 μL of the medium transferred to the tube was added, and culture was performed in a CO2 incubator at 37° C. for 6 hours. The medium of the cultured cells was transferred to a tube, the cells were washed twice with PBS, and then a cell lysis buffer was added to lyse the cells. A sample was prepared by treating the cells with 5× sample buffer, and then SDS-PAGE was performed using 10% SDS-PAGE gel. The proteins isolated through SDS-PAGE were transferred to a PVDF membrane. Blocking was performed at room temperature for 1 hour using 5% skim milk. […]
In general terms: In western blotting, separated proteins are transferred to a membrane and probed.

The next assay deals with collagen. Briefly: Collagen protein secretion by ELISA in NIH3T3 fibroblasts. The class given is cell-based, mouse. The note with it: peptide 10, 50, 100 μM, 72 hours, FIG. 2. How it is done:
as §1, §2

The subject of another assay is fibronectin gene. Briefly: Fibronectin gene expression by RT-PCR in fibroblasts. The assay is classed as cell-based, mouse. The note with it: NIH3T3 cells, peptide 10, 50, 100 μM, 24 hours, FIG. 1. The method, then: as §5, §6
A further assay relates to elastin. Briefly: Elastin mRNA level after UVA irradiation, RT-PCR. The note with it: NIH3T3 cells, peptide 10, 50, 100 μM, 6 J/cm^2 UVA, FIG. 5. The assay is classed as cell-based, mouse. How it is done: (§8) First, NIH3T3 cells were seeded in a 6-well plate at a cell density of 5×10^5 cell/well, and then the cells were cultured in DMEM medium containing 10% fetal bovine serum (FBS) for 24 hours. The cultured cells were washed once with serum free DMEM medium, and then the peptide of the present invention was mixed in 1 mL of the serum free DMEM medium at each of concentrations of 10, 50, and 100 μM, and dispensed into the cells. A positive control (PC) was treated with 50 μM of Quercetin instead of the above peptide. The cells were cultured in a CO2 incubator at 37° C. for 6 hours.
(§9) The medium of the cultured cells was transferred to a tube (e-tube), 1 ml of PBS was added, and irradiation was performed with 6 J/cm^2 of UVA using a UV irradiator (VILBER LOURMAT, Cat No.: 3102-BSU, France). After removing PBS, 900 μL of the medium transferred to the tube was dispensed, and culture was performed in a CO2 incubator at 37° C. for 6 hours. The cultured cells were washed twice with PBS, and then RNA was extracted from the cells using easy blue (iNtRON, Cat. No.: 17061, Korea). The amount of RNA extracted was quantified, 1,000 ng of RNA was added per tube, and RT reaction was performed using a kit (enzynomics, Cat. No.: RT200, Korea) Thereafter, RT-PCR was performed using a PCR kit (enzynomics, Cat. No.: R581T, Korea). […]

For the next assay, the system named is MMP-2. The assay can be described thus: MMP-2 activity after UVA irradiation, gelatin zymography. The class given is cell-based, mouse. The note with it: NIH3T3 cells, culture medium, peptide 10, 50, 100 μM, 6 J/cm^2 UVA, FIG. 6.
Assay [2] concerns MMP-1. The assay can be described thus: MMP-1 protein after heat treatment, western blot. The note with it: NIH3T3 cells, peptide 10, 50, 100 μM, 44° C. for 40 minutes, FIG. 7. The assay is classed as cell-based, mouse. How it is done: as §7
The cells were cultured in a CO2 incubator at 37° C. for 24 hours. A lid and a lower plate of the 6-well plate were sealed with a paraffin film for heat treatment, the lower plate was immersed in a water bath at 44° C., and culture was performed for 40 minutes. After removing the medium, 1 mL of serum free DMEM medium was added, and culture was performed in a CO2 incubator at 37° C. for 8 hours. Thereafter, the cells were washed twice with PBS, and then a cell lysis buffer was added to obtain a lysate.
A sample was prepared by treating the cells with 5× sample buffer, and then SDS-PAGE was performed using 10% SDS-PAGE gel. The proteins isolated through SDS-PAGE were transferred to a PVDF membrane, and blocking was performed at room temperature for 1 hour using 5% skin milk. […]

Another assay has as its system fibronectin. Briefly: Fibronectin mRNA level after UVA irradiation, RT-PCR. The note with it: NIH3T3 cells, peptide 10, 50, 100 μM, 6 J/cm^2 UVA, FIG. 5. The class given is cell-based, mouse. How it is done: as §8, §9
A further assay has as its system Colla1. Briefly: Colla1 mRNA level after UVA irradiation, RT-PCR. The assay is classed as cell-based, mouse. The note with it: NIH3T3 cells, peptide 10, 50, 100 μM, 6 J/cm^2 UVA, FIG. 5. The method, then:
as §8, §9

Assay [3] relates to intracellular reactive oxygen species in NIH3T3 cells. The assay can be described thus: Intracellular ROS level after UVA irradiation (DCFH-DA, FACS). The assay is classed as cell-based, mouse. The note with it: peptide 10, 50, 100 μM, 8 J/cm^2 UVA, 24 hours after irradiation, FIG. 4. The method, then: First, NIH3T3 cells were seeded in a 6-well plate at a cell density of 5×10^5 cell/well, and then the cells were cultured in DMEM medium containing 10% fetal bovine serum (FBS) for 24 hours. The cultured cells were washed once with serum free DMEM medium, and then the peptide of the present invention was mixed in 1 mL of the serum free DMEM medium at each of concentrations of 10, 50, and 100 μM, and dispensed into the cells. A positive control (PC) was treated with 7.5 mM of N-acetylcysteine (NaC) instead of the above peptide.
The cells were cultured in a CO2 incubator at 37° C. for 1 hour. The medium of the cultured cells was transferred to a tube, 1 ml of PBS was added, and irradiation was performed with 8 J/cm^2 of UVA using a UV irradiator (VILBER LOURMAT, Cat No.: 3102-BSU, France). After removing PBS, 900 μL of the medium transferred to the tube was dispensed, and culture was performed in a CO2 incubator at 37° C. for 24 hours. After treatment with 10 μM of dichloro-dihydro-fluorescein diacetate (DCFH-DA), wrapping with a foil was performed, and culture was performed in a CO2 incubator at 37° C. for 30 minutes. The cells were washed twice with PBS, and 500 μL of 1XTE was dispensed to isolate the cells. After centrifugation, the cells were washed with PBS, and a fluorescence value was measured through FACS.

The subject of a further assay is SIRT1. The assay can be described thus: SIRT1 mRNA level by RT-PCR in HaCaT keratinocytes. The assay is classed as cell-based, human. The note with it: HaCaT cells, peptide 10, 50, 100 μM, 24 hours, FIG. 3. The method, then:
as §3, §4

The text below walks through data of patent US20240391955A1, “PEPTIDE HAVING ANTI-AGING ACTIVITY, AND USE THEREOF” (CAREGEN CO., LTD., priority 2021, published 2024).

For KRRRKRK [SEQ ID NO: 1], the “protein secretion of hyaluronic acid” value in the assay with hyaluronic acid was “gradually increased as the concentration of the peptide increased”. The “mRNA level of AQP3” value in the assay on AQP3 is reported as “increased”. In addition, the “expression of elastin gene” value in the assay with elastin gene is on record as “gradually increased as the concentration of the peptide increased”. In addition, the “expression of MMP-1 increased by UV irradiation” value in the assay with MMP-1 [1] was “inhibited”. For the same substance, the “protein secretion of collagen” value in the assay with collagen is on record as “gradually increased as the concentration of the peptide increased”. For the same substance, the “expression of fibronectin gene” value with fibronectin gene is reported as “gradually increased as the concentration of the peptide increased”. Moreover, in the assay on elastin, the “mRNA level of elastin decreased by UV irradiation” value is listed as “increased again”. Besides, the “activity of MMP-2 increased by UV irradiation” value with MMP-2 is recorded as “inhibited”. The “amount of secretion of MMP-1 protein whose expression was increased by heat treatment” value in the assay on MMP-1 [2] is “decreased”. Also, the “mRNA level of fibronectin decreased by UV irradiation” value in the assay with fibronectin is listed as “increased again”. In the assay with Colla1, the “mRNA level of Colla1 decreased by UV irradiation” value is given as “increased again”. For the same substance, the “intracellular reactive oxygen species level increased by UV irradiation” value in assay [3] is “decreased”. The “mRNA level of SIRT1” value in the assay on SIRT1 is on record as “increased”.
